This is an account of results in patent publication US20220380310A1, “P2X7R ANTAGONISTS” (priority 2019, published 2022).

Counter-ions that a name gives are not always drawn.

Type in all cases: cell-based
Assay [1] has as its target T1, Human P2X1 receptor (P2X1R) (Homo sapiens, UniProt P51575).
T1 construct: expressed in transfected cells; host or cells: HEK-293
T1 sequence (P51575 1-399): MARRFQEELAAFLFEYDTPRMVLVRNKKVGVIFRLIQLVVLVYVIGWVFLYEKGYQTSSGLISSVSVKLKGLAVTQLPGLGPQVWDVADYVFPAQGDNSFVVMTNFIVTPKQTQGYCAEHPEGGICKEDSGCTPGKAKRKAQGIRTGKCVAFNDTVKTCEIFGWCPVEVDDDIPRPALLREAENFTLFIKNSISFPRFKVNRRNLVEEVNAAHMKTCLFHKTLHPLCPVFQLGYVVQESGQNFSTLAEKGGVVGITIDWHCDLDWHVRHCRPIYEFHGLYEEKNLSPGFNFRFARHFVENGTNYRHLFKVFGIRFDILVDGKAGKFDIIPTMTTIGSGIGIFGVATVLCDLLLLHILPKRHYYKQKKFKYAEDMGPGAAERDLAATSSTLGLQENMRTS
The assay is described as follows: Receptor-mediated calcium entrance assay (Calcium Assay), P2X1R transfected HEK-293 cells. The conditions noted are these: ATP 20 μM stimulus; for remaining activity at 5 µM: HEK293, compound at 5 μM, read-out: Percentage of activity remains in the presence of the compound at 5 μM, P2X1R (Calcium Assay). The text has this: (§1) Human P2X1 receptor (P2X1R) is a member of P2X family. […] Thus, the calcium assay was used. In the calcium assay, P2X receptor activation leads to opening of ion channels, which increases intracellular calcium concentration. The increased intracellular calcium concentration can be detected by a calcium indicator dye such as Fluo-4 or Fluo-8. Molecular Probes™ Fluo-4, AM (Cat. No. F14201 from Fisher Scientific) was used in the assay. The procedures were similar as described in the Yo-Pro-1 assay until day 4. The construct of P2X1R for transient transfection to HEK-293 cells was the courtesy from Dr. Richard J. Evans laboratory (J. Biol. Chem. 279:9043-9055). After transfection and expression, on day 4 cells were washed twice by Ca-HBSS (The composition (in mM) was NaCl 135, HEPES 10, D-glucose 10, KCl 5.4, CaCl2 2, and MgCl2 1, pH to 7.4 by NaOH) and incubated in dye loading solution (The solution contained 2.5 μM Fluo-4, 1 mM probenecid, and 1× PowerLoad (Cat. No. P10020 from Fisher Scientific) in Ca-HBSS) for 70 minutes at 37° C. Then the extracellular loading dye was washed away and cells were incubated at Ca-HBSS containing 1 mM probenecid for 30 minutes. Before the final steps, probenecid was washed away with Ca-HBSS. The assay was performed by adding 25 μl of Ca-HBSS followed by 25 μl of various test compounds. At this point, the base level of fluorescence was obtained through the microplate reading—the base microplate reading for this assay. At the end, the stimulus (ATP at 20 μM was the final concentration for P2X1R) was added to activate the P2X1R. Activation of P2X1R opened the channel to allow influx of calcium, which was represented by fluorescence increases that were measured by the microplate device with excitation at 475 nm and emission wavelength in the range of 500-550 nm. The data were analyzed the same way as described before: The result of each well was first normalized by its corresponding base microplate reading. Then, the negative control signal was subtracted from. In the negative control, the test compound and the stimulus were replaced by Ca-HBSS. […] An average of six highest values of the plate (AVG) were considered as 100% and the value of each well was divided by AVG and presented as the relative values in percentages.

The next assay deals with T2, P2X2R (Homo sapiens, UniProt Q9UBL9).
T2 construct: expressed in transfected cells; host or cells: HEK-293
T2 sequence (Q9UBL9 1-471): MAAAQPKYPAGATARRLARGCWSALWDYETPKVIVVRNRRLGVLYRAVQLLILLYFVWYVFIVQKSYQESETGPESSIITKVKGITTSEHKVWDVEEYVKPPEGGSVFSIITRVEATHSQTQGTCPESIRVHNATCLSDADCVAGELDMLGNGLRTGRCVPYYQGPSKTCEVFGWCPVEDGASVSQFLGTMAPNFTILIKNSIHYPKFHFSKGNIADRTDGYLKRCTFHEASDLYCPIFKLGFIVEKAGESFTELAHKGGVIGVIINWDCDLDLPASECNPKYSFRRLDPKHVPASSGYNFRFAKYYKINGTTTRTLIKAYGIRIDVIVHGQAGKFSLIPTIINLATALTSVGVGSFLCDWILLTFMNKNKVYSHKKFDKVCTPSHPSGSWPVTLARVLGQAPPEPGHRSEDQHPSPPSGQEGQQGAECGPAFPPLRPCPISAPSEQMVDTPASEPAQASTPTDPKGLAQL
The assay is described as follows: Receptor-mediated calcium entrance assay (Calcium Assay), P2X2R. The note with it: for remaining activity at 5 µM: compound at 5 μM, read-out: Percentage of activity remains in the presence of the compound at 5 μM, P2X2R (Calcium Assay).

In assay [2] the target is T3, Human P2X4 receptor (P2X4R) (Homo sapiens, UniProt Q99571).
T3 construct: expressed in transfected cells; host or cells: HEK-293
T3 sequence (Q99571 1-388): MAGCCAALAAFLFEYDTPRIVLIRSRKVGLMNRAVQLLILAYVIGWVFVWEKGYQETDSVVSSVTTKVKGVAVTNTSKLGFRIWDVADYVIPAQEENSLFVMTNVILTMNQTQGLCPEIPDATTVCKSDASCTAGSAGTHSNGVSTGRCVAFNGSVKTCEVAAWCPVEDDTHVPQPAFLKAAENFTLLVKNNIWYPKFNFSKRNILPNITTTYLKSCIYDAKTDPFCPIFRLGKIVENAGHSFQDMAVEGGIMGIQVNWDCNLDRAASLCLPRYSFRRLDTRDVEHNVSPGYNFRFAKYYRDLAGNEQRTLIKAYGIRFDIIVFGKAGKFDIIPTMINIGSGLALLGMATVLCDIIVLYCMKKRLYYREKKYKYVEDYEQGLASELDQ
The assay is described as follows: Receptor-mediated calcium entrance assay (Calcium Assay), P2X4R transfected HEK-293 cells. The note with it: HEK293, compound at 5 μM, 1 mM ATP stimulus, read-out: Percentage of activity remains in the presence of the compound at 5 μM, P2X4R (Calcium Assay).
From the text: as §1
Human P2X4 receptor (P2X4R) construct (J. Biol. Chem. 290, 7930-7942) was transiently transfected to HEK-293 cells and the calcium assay was performed as described above. When 1 mM ATP was used as stimulus, an increased receptor mediated activity leading to intracellular calcium elevation can be seen in less than 10 minutes.

In the case of `O=C(CCc1ccccc1)NC1CCCN(c2ccc(S(=O)(=O)NC3CCCCC3)cc2)C1` (centres unmarked) [#51], the remaining activity at 5 µM in assay [1] amounted to 63.1%; on P2X2R, 81.2%; in assay [2] it was 71.3%.

As to `CC(C)COc1ccc(S(=O)(=O)N2CCCC(NC(=O)CCc3ccccc3)C2)cc1` (centres unmarked) [#6], the figures for the remaining activity at 5 µM (in assay [1]; at P2X2R; in assay [2]) were 51%, 55.2% and 98.9%, respectively.

In the case of `O=C(CCc1ccccc1)NC1CCCN(c2ccc(S(=O)(=O)NCc3ccco3)cc2)C1` (centres unmarked) [#52], the remaining activity at 5 µM in assay [1] was 63.4%; at P2X2R, 72.3%; in assay [2], 52.8%.

For `CS(=O)(=O)c1ccc(N2CCCC(NC(=O)CCc3ccccc3)C2)cc1` (centres unmarked) [#1], the remaining activity at 5 µM came out at 56.5% in assay [1], 61.3% at P2X2R and 71.9% in assay [2].

With `CC1CCCN(c2ccc(S(=O)(=O)N3CCCC(NC(=O)CCc4ccccc4)C3)cc2)C1` (centres unmarked) [#44], the remaining activity at 5 µM in assay [1] was determined as 40.5%; at P2X2R it was 83%; in assay [2], 63.5%.

Consider `CC1CCCCN1c1ccc(S(=O)(=O)N2CCCC(NC(=O)CCc3ccccc3)C2)cc1` (centres unmarked) [#47], for which the remaining activity at 5 µM in assay [1] was 50.1%; on P2X2R, 65.6%; in assay [2], 93.3%.

As for `CC(C)(C)OC(=O)N1CCN(c2ccc(S(=O)(=O)N3CCCC(C(=O)NCCc4ccccc4)C3)cc2)CC1` (centres unmarked) [#36], the results for the remaining activity at 5 µM (in assay [1]; at P2X2R; in assay [2]) were 49%, 49.4% and 72.2%, respectively.

As to `O=C(CCc1ccccc1)NC1CCCN(c2ccc(S(=O)(=O)Nc3ccccc3)cc2)C1` (centres unmarked) [#50], the remaining activity at 5 µM in assay [1] was 47.8%; at P2X2R, 67.2%; in assay [2] it was 84.3%.

With `CC(C)(C)OC(=O)N1CCC(C2CCN(c3ccc(S(=O)(=O)N4CCCC(NC(=O)CCc5ccccc5)C4)cc3)CC2)CC1` (centres unmarked) [#41], the remaining activity at 5 µM in assay [1] is 46.7%; on P2X2R, 61.1%; in assay [2], 39.9%.

As to `CCCCNc1ccc(S(=O)(=O)N2CCC(C(=O)O)CC2)cc1` [#27], the remaining activity at 5 µM in assay [1] was 50.8%; at P2X2R it was 67.2%; in assay [2] it was 59.9%.

In the case of `O=C(CCc1ccccc1)NC1CCCN(S(=O)(=O)c2ccc(-n3cc(Br)cn3)cc2)C1` (centres unmarked) [#9], the remaining activity at 5 µM in assay [1] is 92.8%; on P2X2R it was 61.3%; in assay [2], 84.5%.

As for `CC1CCN(c2ccc(S(=O)(=O)N3CCCC(NC(=O)CCc4ccccc4)C3)cc2)CC1` (centres unmarked) [#40], the remaining activity at 5 µM is 39% in assay [1], 73.5% at P2X2R and 62.9% in assay [2].

`O=C1CCC(N2Cc3c(NC(=O)CCc4ccccc4)cccc3C2=O)C(=O)N1` (centres unmarked) [#16]: the results for the remaining activity at 5 µM (in assay [1]; at P2X2R; in assay [2]) were 51.5%, 77% and 60.7%, respectively.

As to `O=C(CCc1ccccc1)N1CCN(S(=O)(=O)c2ccc(N3CCOCC3)cc2)CC1` [#32], the remaining activity at 5 µM came out at 46.7% in assay [1], 47.8% at P2X2R and 91% in assay [2].

`O=C(CCc1ccccc1)N1CCNCC1` [#29, hydrochloride]: the remaining activity at 5 µM was 62.5% in assay [1], 83.3% on P2X2R and 67.1% in assay [2].

For `O=C(CCc1ccccc1)NC1CCCN(S(=O)(=O)c2ccc(N3CCC(C(F)(F)F)CC3)cc2)C1` (centres unmarked) [#42], the remaining activity at 5 µM worked out at 66.3% in assay [1], 62.7% on P2X2R and 55.8% in assay [2].

As to `O=C(NCCc1ccccc1)C1CCCN(S(=O)(=O)c2ccc(N3CCOCC3)cc2)C1` (centres unmarked) [#24], the remaining activity at 5 µM in assay [1] was 66.3%; on P2X2R, 73.5%; in assay [2], 68.1%.

`O=C(CCc1ccccc1)NC1CCCN(S(=O)(=O)c2ccc(F)c(Cl)c2)C1` (centres unmarked) [#43]: the values for the remaining activity at 5 µM (in assay [1]; at P2X2R; in assay [2]) were 57.1%, 56% and 48.4%, respectively.

Take `O=C(CCc1ccccc1)NC1CCCN(S(=O)(=O)c2ccc(N3CCCCC3)c(Cl)c2)C1` (centres unmarked) [#45]: the remaining activity at 5 µM in assay [1] is 52%; at P2X2R, 49.4%; in assay [2], 61.9%.

In the case of `CC(C)(C)OC(=O)N1CCN(c2ccc(S(=O)(=O)N3CCN(C(=O)CCc4ccccc4)CC3)cc2)CC1` [#31], the remaining activity at 5 µM worked out at 43.9% in assay [1], 78.3% at P2X2R and 81.8% in assay [2].

On to `O=C(CCc1ccccc1)NC1CCCN(S(=O)(=O)c2ccc(OCc3ccccc3)cc2)C1` (centres unmarked) [#4], for which the remaining activity at 5 µM turned out to be 43.7% in assay [1], 83.7% at P2X2R and 56.9% in assay [2].

Regarding `O=C(CCc1ccccc1)NC1CCCN(c2ccc(S(=O)(=O)N3CCCC3)cc2)C1` (centres unmarked) [#55], the remaining activity at 5 µM in assay [1] stood at 53.8%; on P2X2R, 52.7%; in assay [2] it was 37.7%.

In the case of `O=C(CCc1ccccc1)N1CCN(S(=O)(=O)c2ccc(N3CCCC3)cc2)CC1` [#35], the remaining activity at 5 µM was 56.3% in assay [1], 43.7% at P2X2R and 70.7% in assay [2].

For `NC(=O)c1cc(Br)cc(N2CCOCC2)c1` [#28], the remaining activity at 5 µM in assay [1] was determined as 62.6%; on P2X2R, 50.7%; in assay [2], 85.4%.

With `Cc1nc(N=Nc2ccc(S(=O)(=O)[O-])cc2S(=O)(=O)[O-])c(COP(=O)([O-])[O-])c(C=O)c1O.[Na+].[Na+].[Na+].[Na+]` [PPADS, Pyridoxalphosphate-6-azophenyl-2′,4′-disulfonic acid tetrasodium, reference compound], the “Percentage of activity remains in the presence of the compound at 5 μM, P2X1R (Calcium Assay)” value in assay [1] is reported as 26.7%. For the same compound, at P2X2R, the “Percentage of activity remains in the presence of the compound at 5 μM, P2X2R (Calcium Assay)” value is reported as 6.2%.
